Experimental data: PubChem BioAssay (NCI)
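The concentration for 50% growth inhibition is given as GI50. TGI marks complete inhibition of growth.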

Legend:
Assay in all cases: DTP human tumour cell line panel, 384-well format
786-0 renal = test system: 786-0 renal
A549 NSCLC = test system: A549 NSCLC
ACHN renal = test system: ACHN renal
BT-549 breast = test system: BT-549 breast
CAKI-1 renal = test system: CAKI-1 renal
CCRF-CEM leukemia = test system: CCRF-CEM leukemia
COLO 205 colon = test system: COLO 205 colon
EKVX NSCLC = test system: EKVX NSCLC
HCC-2998 colon = test system: HCC-2998 colon
HCT-116 colon = test system: HCT-116 colon
HCT-15 colon = test system: HCT-15 colon
HOP-92 NSCLC = test system: HOP-92 NSCLC
HT29 colon = test system: HT29 colon
IGROV1 ovarian = test system: IGROV1 ovarian
K-562 leukemia = test system: K-562 leukemia
KM12 colon = test system: KM12 colon
M14 melanoma = test system: M14 melanoma
MALME-3M melanoma = test system: MALME-3M melanoma
MCF7 breast = test system: MCF7 breast
MDA-MB-231 breast = test system: MDA-MB-231 breast
MDA-MB-435 melanoma = test system: MDA-MB-435 melanoma
MDA-MB-468 breast = test system: MDA-MB-468 breast
MOLT-4 leukemia = test system: MOLT-4 leukemia
NCI-H226 lung = test system: NCI-H226 lung
NCI-H23 lung = test system: NCI-H23 lung
NCI-H322M lung = test system: NCI-H322M lung
NCI-H460 NSCLC = test system: NCI-H460 NSCLC
NCI/ADR-RES ovarian = test system: NCI/ADR-RES ovarian
OVCAR-4 ovarian = test system: OVCAR-4 ovarian
OVCAR-5 ovarian = test system: OVCAR-5 ovarian
RPMI-8226 leukemia = test system: RPMI-8226 leukemia
RXF 393 renal = test system: RXF 393 renal
SF-268 CNS = test system: SF-268 CNS
SK-MEL-2 melanoma = test system: SK-MEL-2 melanoma
SK-MEL-28 melanoma = test system: SK-MEL-28 melanoma
SK-MEL-5 melanoma = test system: SK-MEL-5 melanoma
SN12C renal = test system: SN12C renal
SNB-19 CNS = test system: SNB-19 CNS
SNB-75 CNS = test system: SNB-75 CNS
SR leukemia = test system: SR leukemia
SW-620 colon = test system: SW-620 colon
T-47D breast = test system: T-47D breast
TK-10 renal = test system: TK-10 renal
U251 glioblastoma = test system: U251 glioblastoma
UACC-257 melanoma = test system: UACC-257 melanoma
UACC-62 melanoma = test system: UACC-62 melanoma
UO-31 renal = test system: UO-31 renal

Cc1ccc(S(=O)(=O)Cc2nc(-c3ccc(C(=O)NCc4cccnc4)cc3)oc2C)cc1
GI50 ([…]-0 renal): < 0.01 µM
TGI (786-0 renal): 0.0161 µM
GI50 (A549 NSCLC): 0.0194 µM
TGI (A549 NSCLC): 0.0419 µM
GI50 (ACHN renal): 0.0125 µM
TGI (ACHN renal): 0.0287 µM
GI50 (BT-549 breast): 0.0179 µM
TGI (BT-549 breast): 0.0327 µM
GI50 (CAKI-1 renal): < 0.01 µM
TGI (CAKI-1 renal): 0.0155 µM
GI50 (CCRF-CEM leukemia): < 0.01 µM
TGI (CCRF-CEM leukemia): < 0.01 µM
GI50 (COLO 205 colon): < 0.01 µM
TGI (COLO 205 colon): < 0.01 µM
GI50 (EKVX NSCLC): < 0.01 µM
TGI (EKVX NSCLC): 0.0251 µM
GI50 (HCC-2998 colon): < 0.01 µM
TGI (HCC-2998 colon): < 0.01 µM
GI50 (HCT-116 colon): < 0.01 µM
TGI (HCT-116 colon): < 0.01 µM
GI50 (HCT-15 colon): < 0.01 µM
TGI (HCT-15 colon): 0.0163 µM
GI50 (HOP-92 NSCLC): 0.022 µM
TGI (HOP-92 NSCLC): 0.0526 µM
GI50 (HT29 colon): 0.0189 µM
TGI (HT29 colon): 0.0379 µM
GI50 (IGROV1 ovarian): 0.0112 µM
TGI (IGROV1 ovarian): 0.0237 µM
GI50 (K-562 leukemia): < 0.01 µM
TGI (K-562 leukemia): < 0.01 µM
GI50 (KM12 colon): < 0.01 µM
TGI (KM12 colon): 0.0119 µM
GI50 (M14 melanoma): < 0.01 µM
TGI (M14 melanoma): 0.0169 µM
GI50 (MALME-3M melanoma): 0.0191 µM
TGI (MALME-3M melanoma): 0.0438 µM
GI50 (MCF7 breast): 0.0142 µM
TGI (MCF7 breast): 0.0291 µM
GI50 (MDA-MB-231 breast): 0.0394 µM
TGI (MDA-MB-231 breast): 0.149 µM
GI50 (MDA-MB-435 melanoma): 0.0132 µM
TGI (MDA-MB-435 melanoma): 0.0261 µM
GI50 (MDA-MB-468 breast): 0.0118 µM
TGI (MDA-MB-468 breast): 0.0261 µM
GI50 (MOLT-4 leukemia): < 0.01 µM
TGI (MOLT-4 leukemia): < 0.01 µM
GI50 (NCI-H226 lung): 0.119 µM
TGI (NCI-H226 lung): 0.602 µM
GI50 (NCI-H23 lung): < 0.01 µM
TGI (NCI-H23 lung): 0.0202 µM
GI50 (NCI-H322M lung): < 0.01 µM
TGI (NCI-H322M lung): < 0.01 µM
GI50 (NCI-H460 NSCLC): 0.0216 µM
TGI (NCI-H460 NSCLC): 0.0473 µM
GI50 (NCI/ADR-RES ovarian): 0.0152 µM
TGI (NCI/ADR-RES ovarian): 0.0294 µM
GI50 (OVCAR-4 ovarian): 0.0193 µM
TGI (OVCAR-4 ovarian): 0.0396 µM
GI50 (OVCAR-5 ovarian): < 0.01 µM
TGI (OVCAR-5 ovarian): < 0.01 µM
GI50 (RPMI-8226 leukemia): < 0.01 µM
TGI (RPMI-8226 leukemia): < 0.01 µM
GI50 (RXF 393 renal): 0.0169 µM
TGI (RXF 393 renal): 0.0334 µM
GI50 (SF-268 CNS): < 0.01 µM
TGI (SF-268 CNS): 0.0129 µM
GI50 (SK-MEL-2 melanoma): < 0.01 µM
TGI (SK-MEL-2 melanoma): < 0.01 µM
GI50 (SK-MEL-28 melanoma): 0.0172 µM
TGI (SK-MEL-28 melanoma): 0.0343 µM
GI50 (SK-MEL-5 melanoma): < 0.01 µM
TGI (SK-MEL-5 melanoma): 0.0208 µM
GI50 (SN12C renal): < 0.01 µM
TGI (SN12C renal): < 0.01 µM
GI50 (SNB-19 CNS): < 0.01 µM
TGI (SNB-19 CNS): < 0.01 µM
GI50 (SNB-75 CNS): 0.0239 µM
TGI (SNB-75 CNS): 0.0532 µM
GI50 (SR leukemia): 0.0181 µM
TGI (SR leukemia): 0.0333 µM
GI50 (SW-620 colon): < 0.01 µM
TGI (SW-620 colon): < 0.01 µM
GI50 (T-47D breast): < 0.01 µM
TGI (T-47D breast): < 0.01 µM
GI50 (TK-10 renal): 0.0191 µM
TGI (TK-10 renal): 0.0357 µM
GI50 (U251 glioblastoma): < 0.01 µM
TGI (U251 glioblastoma): < 0.01 µM
GI50 (UACC-257 melanoma): 0.0275 µM
TGI (UACC-257 melanoma): 0.0596 µM
GI50 (UACC-62 melanoma): 0.0165 µM
TGI (UACC-62 melanoma): 0.0345 µM
GI50 (UO-31 renal): < 0.01 µM
TGI (UO-31 renal): < 0.01 µM
